This is an account of results in patent publication US20230014907A1, “INHIBITORS OF APOL1 AND METHODS OF USING SAME” (Vertex Pharmaceuticals Incorporated, priority 2020, published 2023).

Each structure is given as a SMILES string.

One experiment has as its target T1, G1 APOL1 (Homo sapiens, UniProt O14791, I384M/S342G).
T1 construct: expressed in transfected cells
T1 sequence (O14791 28-398 S342G/I384M): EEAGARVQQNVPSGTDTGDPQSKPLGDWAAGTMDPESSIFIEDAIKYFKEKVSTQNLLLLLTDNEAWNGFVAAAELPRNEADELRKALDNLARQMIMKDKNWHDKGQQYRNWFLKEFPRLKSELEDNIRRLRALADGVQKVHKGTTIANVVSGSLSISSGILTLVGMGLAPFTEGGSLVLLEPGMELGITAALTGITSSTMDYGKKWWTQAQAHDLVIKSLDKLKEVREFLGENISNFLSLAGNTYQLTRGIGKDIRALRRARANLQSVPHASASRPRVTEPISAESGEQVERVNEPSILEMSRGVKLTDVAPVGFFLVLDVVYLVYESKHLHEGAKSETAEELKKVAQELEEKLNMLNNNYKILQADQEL
The experiment is described as follows: Acute APOL1 Thallium Assay with Inducible Stable Clones of HEK 293 Cells. It is filed as cell-based. The settings on record: HEK 293 inducible stable clones, G1 APOL1; read-out: Thallium Assay (IC50). Summed up:
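Pore activity was read as the fluorescence increase from Tl+ entering cells loaded with an AM-ester thallium indicator dye. The cells were tetracycline-inducible HEK293 T-Rex expressing G1 APOL1 (clone DC3.25), induced when plated at 26000 per well and incubated at 37° C.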

In another experiment the target is T2, APOL1 G1 Protein (Homo sapiens, UniProt O14791, I384M/S342G).
T2 sequence (O14791 28-398 S342G/I384M): T1 sequence (O14791 28-398 S342G/I384M)
Nature of the experiment: Trypanosoma brucei brucei Lysis Assay Using APOL1 Recombinant Protein (AlamarBlue viability). The experiment is classed as cell-based. The settings on record: read-out: Trypanosomal Assay (IC50). Summed up:
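Lister 427 bloodstream-form trypanosomes seeded at 120,000 per well in phenol-red-free, serum-free medium and lysed with recombinant APOL1 variant protein. Viability read by AlamarBlue (resazurin) fluorescence. Percent viability relative to untreated wells, interpolated from a standard curve of seeded parasites.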
A general note: The colour change of resazurin is a common sign of viable cells or microbes.

As to `O=C(CCc1c(-c2ccc(F)cc2)[nH]c2c(F)cc(F)cc12)NCCC(=O)N1CC(O)C1` [Compound 191], the IC50 on G1 APOL1 and on APOL1 G1 Protein was > 1000 nM each time.
Consider `CC(C)C[C@H](CO)NC(=O)CCc1c(-c2ccc(F)cc2)[nH]c2c(F)cc(F)cc12` [Compound 192], for which the IC50 at G1 APOL1 and on APOL1 G1 Protein was > 1000 nM each time.
Turning to `CC1(C)COC(=O)C1NC(=O)CCc1c(-c2ccc(F)cc2)[nH]c2c(F)cc(F)cc12` (stereo not shown) [Compound 193], the IC50 at G1 APOL1 and at APOL1 G1 Protein was > 1000 nM throughout.
For `C[C@H](CO)NC(=O)CCc1c(-c2ccc(F)cc2)[nH]c2c(F)cc(Br)cc12` [Compound 227, 3-[5-bromo-7-fluoro-2-(4-fluorophenyl)-1H-indol-3-yl]-N-[(1R)-2-hydroxy-1-methyl-ethyl]propanamide], the IC50 on G1 APOL1 and on APOL1 G1 Protein was < 250 nM in each case.
Consider `O=C(CCc1c(-c2ccc(F)cc2)[nH]c2c(F)cc(Br)cc12)N[C@H](CO)C(F)(F)F` [Compound 228], for which the IC50 at G1 APOL1 and at APOL1 G1 Protein was > 1000 nM throughout.
For `O=C(CCc1c(-c2ccc(F)cc2)[nH]c2c(F)cc(Br)cc12)N[C@@H](CO)C(F)(F)F` [Compound 229], the figures for the IC50 on G1 APOL1 and on APOL1 G1 Protein were 250 to 1000 nM and < 250 nM, respectively.
For `O=C(CCc1c(-c2ccc(F)cc2)[nH]c2c(F)ccc(F)c12)N[C@@H](CO)C(F)(F)F` [Compound 232, 3-[4,7-difluoro-2-(4-fluorophenyl)-1H-indol-3-yl]-N-[(1S)-2,2,2-trifluoro-1-(hydroxymethyl)ethyl]propanamide], in that order: 250 to 1000 nM and 250 to 1000 nM.
For `O=C(CCc1c(-c2ccc(F)cc2)[nH]c2c(F)ccc(F)c12)N[C@H]1CCOC1=O` [Compound 233, 3-[4,7-difluoro-2-(4-fluorophenyl)-1H-indol-3-yl]-N-[(3S)-2-oxotetrahydrofuran-3-yl]propanamide], in that order: 250 to 1000 nM and > 1000 nM.
The corresponding values for `N#Cc1ccc(-c2[nH]c3c(F)cc(F)cc3c2CCC(=O)N[C@@H](CO)C(F)(F)F)cc1` [Compound 234, 3-[2-(4-cyanophenyl)-5,7-difluoro-1H-indol-3-yl]-N-[(1S)-2,2,2-trifluoro-1-(hydroxymethyl)ethyl]propanamide] are < 250 nM and < 250 nM.
As to `O=C(CCc1c(-c2ccccc2)[nH]c2ccc(F)cc12)NCCO` [Compound 236], the IC50 on G1 APOL1 and at APOL1 G1 Protein was > 1000 nM throughout.
With `O=C(CCc1c(-c2ccc(F)cc2)[nH]c2ccccc12)NC1CC1` [Compound 238], the half-inhibitory concentration (IC50) on G1 APOL1 and on APOL1 G1 Protein was > 1000 nM throughout.
Regarding `C[C@@H](CO)NC(=O)NCCc1c(-c2ccc(F)cc2)[nH]c2c(F)cc(F)cc12` [Compound 283], the IC50 at G1 APOL1 and at APOL1 G1 Protein was < 250 nM each time.
As to `O=C(CCO)NCCc1c(-c2ccc(F)cc2)[nH]c2c(F)cc(F)cc12` [Compound 361], the IC50 on G1 APOL1 and at APOL1 G1 Protein was 250 to 1000 nM each time.
Regarding `OCCc1c(-c2ccc(F)cc2)[nH]c2c(F)cc(F)cc12` [Compound 433, 2-[5,7-difluoro-2-(4-fluorophenyl)-1H-indol-3-yl]ethanol], the IC50 at G1 APOL1 and on APOL1 G1 Protein was < 250 nM each time.
`NCCCc1c(-c2ccc(F)cc2)[nH]c2c(F)cc(F)cc12` [Compound 504, 3-[5,7-difluoro-2-(4-fluorophenyl)-1H-indol-3-yl]propan-1-amine]: the values for the IC50 at G1 APOL1 and on APOL1 G1 Protein were 250 to 1000 nM and < 250 nM, respectively.
For `CC(=O)NCCCc1c(-c2ccc(F)cc2)[nH]c2c(F)cc(F)cc12` [Compound 505, N-[3-[5,7-difluoro-2-(4-fluorophenyl)-1H-indol-3-yl]propyl]acetamide], the IC50 on G1 APOL1 is < 250 nM; at APOL1 G1 Protein, 250 to 1000 nM.
The corresponding values for `O=C(NCCCc1c(-c2ccc(F)cc2)[nH]c2ccc(F)cc12)C(F)F` [Compound 506] are 250 to 1000 nM and 250 to 1000 nM.
The corresponding values for `CC(=O)NCCCc1c(-c2ccc(F)cc2)[nH]c2c(Cl)cccc12` [Compound 508, N-[3-[7-chloro-2-(4-fluorophenyl)-1H-indol-3-yl]propyl]acetamide] are 250 to 1000 nM and 250 to 1000 nM.
For `CC(=O)NCCSc1c(-c2ccc(F)cc2)[nH]c2c(F)cc(F)cc12` [Compound 509, N-[2-[[5,7-difluoro-2-(4-fluorophenyl)-1H-indol-3-yl]sulfanyl]ethyl]acetamide], in that order: < 250 nM and < 250 nM.
With `CC(=O)NCCSc1c(-c2ccc(F)cc2)[nH]c2ccccc12` [Compound 510, N-[2-[[2-(4-fluorophenyl)-1H-indol-3-yl]sulfanyl]ethyl]acetamide], the IC50 on G1 APOL1 and at APOL1 G1 Protein was 250 to 1000 nM in each case.
Take `NCCCCc1c(-c2ccc(F)cc2)[nH]c2c(F)cc(F)cc12` [Compound 511, 4-[5,7-difluoro-2-(4-fluorophenyl)-1H-indol-3-yl]butan-1-amine]: the IC50 on G1 APOL1 and at APOL1 G1 Protein was < 250 nM in each case.
As for `CC(=O)NCCCCc1c(-c2ccc(F)cc2)[nH]c2c(F)cc(F)cc12` [Compound 512, N-[4-[5,7-difluoro-2-(4-fluorophenyl)-1H-indol-3-yl]butyl]acetamide], the IC50 at G1 APOL1 and at APOL1 G1 Protein was 250 to 1000 nM throughout.
As to `CC(=O)NCC(F)(F)Cc1c(-c2ccc(F)cc2)[nH]c2c(F)cc(F)cc12` [Compound 515, N-[3-[5,7-difluoro-2-(4-fluorophenyl)-1H-indol-3-yl]-2,2-difluoro-propyl]acetamide], the IC50 on G1 APOL1 and on APOL1 G1 Protein was 250 to 1000 nM each time.
Take `OCCCc1c(-c2ccc(F)cc2)[nH]c2c(F)cc(F)cc12` [Compound 517, 3-[5,7-difluoro-2-(4-fluorophenyl)-1H-indol-3-yl]propan-1-ol]: the IC50 at G1 APOL1 and at APOL1 G1 Protein was < 250 nM each time.
With `O=C(/C=C/c1c(-c2ccc(F)cc2)[nH]c2c(F)cc(F)cc12)N[C@@H]1C(=O)NC[C@H]1O` [Compound 518, (E)-3-[5,7-difluoro-2-(4-fluorophenyl)-1H-indol-3-yl]-N-[(3S,4R)-4-hydroxy-2-oxo-pyrrolidin-3-yl]prop-2-enamide], the IC50 on G1 APOL1 and at APOL1 G1 Protein was < 250 nM throughout.
`Cc1cc(NC(=O)CCc2c(-c3ccc(F)cc3)[nH]c3ccc(F)cc23)no1` [Compound 526]: the IC50 on G1 APOL1 and at APOL1 G1 Protein was > 1000 nM in each case.

What is called IC50 is the concentration at which inhibition is half-maximal.
